Series [1] is described as follows: Re-extraction of iodine from the loaded organic solvent into aqueous sodium hydroxide solution (distribution coefficient Dréex). It counts as physicochemical. The source says: Dans un deuxième temps, on met en contact la phase organique après extraction et après élimination de la première solution aqueuse, avec une deuxième solution aqueuse de réextraction, ladite solution étant une solution aqueuse de soude, les volumes de phase organique et de solution de réextraction étant sensiblement égaux.
Différents essais ont été effectués en faisant varier la concentration en soude de la deuxième solution aqueuse. On mesure les coefficients de distribution Dréex de l'iode, qui pour la réextraction correspond au rapport de la concentration en iode dans la seconde solution aqueuse à la concentration en iode en phase organique.

Series [2] in a line: Liquid-liquid extraction of iodine from nitric acid solution into the organic solvent (distribution coefficient Dex, gamma spectrometry). The format is physicochemical. As to conditions: equal volumes; for coefficient de distribution Dex de l'iode: first aqueous solution HNO3 3 mol/L, 125I 1500 kBq/L, ratio organic/aqueous iodine concentration at equilibrium. The procedure: Dans un premier temps, on met en contact, dans un tube en polypropylène étanche, une première solution aqueuse d'acide nitrique de concentration 3 mol/L contenant de l'iode ^125I, à une teneur de 1500 kBq/L avec une phase organique contenant du 1,2-NPHE. Les volumes de la solution aqueuse et de la phase organique sont égaux. L'ensemble est agité entre 10 minutes et une heure de façon douce par un dispositif approprié et ultérieurement mis dans une centrifugeuse pour une durée de 10 minutes à 4000 rpm.
On mesure le coefficient de distribution Dex de l'iode entre la première solution aqueuse et la phase organique, ce coefficient correspondant au rapport de la concentration en iode en phase organique à la concentration en iode en solution aqueuse à l'équilibre. Les concentrations en iode sont mesurées par spectrométrie gamma.

Experimental findings from patent EP1455919B1, “IODINE EXTRACTION METHOD” (Commissariat à l'Énergie Atomique et aux Énergies …, priority 2001, dated 2003) are described below.

Turning to `CCCCCCOc1ccccc1[N+](=O)[O-]` [1,2-NPHE, 1,2-nitrophénylhexyléther], the Dréex in series [1] (soude 0,1 mol/L (10^-1 mol/L)) is reported as 5,7; in series [1] (soude 0,5 mol/L), 6,6; in series [1] (soude 0,6 mol/L), 7,6; in series [1] (soude 1,5 mol/L) it was 6,6; in series [1] (soude 1 mol/L), 7,0; in series [1] (soude 2 mol/L, ratio aqueous/organic), 6,3. The Dréex in series [1] (soude 5.10^-2 mol/L) is reported as 5,5; in series [1] (soude 5.10^-3 mol/L), 0,04; in series [1] (soude 10^-1 mol/L with borohydrure de sodium 10^-3 mol/L), 5,8; in series [1] (soude 10^-2 mol/L) it was 4,9; in series [1] (soude 10^-3 mol/L), 0,02; in series [1] (soude 10^-4 mol/L), 0. Moreover, in series [2] (corresponds to Dex of 3, HNO3 3 mol/L), the “% d'extraction” value came out at 75%. For the same compound, in series [2], the “coefficient de distribution Dex de l'iode” value was 3.
Regarding `CCCCCCCCOc1ccccc1[N+](=O)[O-]` [1,2-NPOE, 1,2-nitrophényloctyléther], in series [1] (soude 0,1 mol/L (10^-1 mol/L)), the Dréex is 1,7. The “coefficient de distribution Dex de l'iode” value in series [2] is reported as 2,9.
The corresponding values for `CC(C)c1cccc(C(C)C)c1` [1,3-diisopropylbenzène] are 2,3 and 2,3.
The corresponding values for `CC(=O)CC(C)C` [4-méthyl-1,2-pentanone, reference compound] are 0,012 and 9,1.
The corresponding values for `CCCCCC(=O)O` [Acide Hexanoique, acide hexanoïque, reference compound] are 0,04 and 4,1.
As for `CCCCOC(C)=O` [Acétate de butyle, acétate de butyle, reference compound], the Dréex in series [1] (soude 0,1 mol/L (10^-1 mol/L)) was 0,014. Besides, the “coefficient de distribution Dex de l'iode” value in series [2] was 6,6.
Taken in the same sequence, the figures for `CC(C)CCCCCCCCCCO` [Isotridécanol, isotridécanol, reference compound] were 0,028 and 5,2.
Regarding `CCCCCCCCO` [Octanol, octanol, reference compound], in series [1] (soude 0,1 mol/L (10^-1 mol/L)), the Dréex is recorded as 0,023. In series [2], the “coefficient de distribution Dex de l'iode” value is 8,7.
Taken in the same sequence, the figures for `CCCCCC` [hexane] were 4,2 and 1,5.
Taken in the same sequence, the figures for `CCCCCCc1ccccc1` [hexylbenzène] were 11.6 and 2.7.
